Experimental data as given in patent US7223797B2, “Meldonium salts, method of their preparation and pharmaceutical composition on their basis” (Joint Stock Company “Grindeks”, priority 2003, dated 2007).

Assays:
[1] = Sample hygroscopicity test: H2O content before and after 24 hours at 100% humidity; assay type: physicochemical; conditions: for H2O content after 24 hours maintenance at 100% humidity: closed vessel over water; for H2O content after 24 hours maintenance at 100% humidity / Initial H2O content in the sample: Fischer titration; for Initial H2O content in the sample: before the test; for hygroscopicity (in words): qualitative statement
Protocol: Sample hygroscopicity was tested by H2O content determination before the test and after 24 hours maintenance at 100% humidity (keeping in a closed vessel over water). On such conditions, Meldonium absorbs 10% water (as to mass increase) during 24 hours. Water content was determined by titration by Fischer's method; in cases of syrup formation water content is determined by sample mass increase.

[2] = Thermal / storage stability; assay type: physicochemical; conditions: qualitative statement
[3] = humans; cited from earlier work
[4] = rats; cited from earlier work

Molecule | H2O content after 24 hours maintenance at 100% humidity [1] | Initial H2O content in the sample [1] | Sample mass increase due to absorbed water ([1]; 24 hours at 100% humidity) [%] | other results
C[N+](C)(C)NCCC(=O)O.C[N+](C)(C)NCCC(=O)O.NCCS(=O)(=O)[O-].NCCS(=O)(=O)[O-].O.O.O [Meldonium 2-aminoethane sulfonate (taurate; 1:1; ×1.5H2O)] | 17.0854% | 9,4824% | – | –
C[N+](C)(C)NCCC(=O)O.NC(CC(=O)O)C(=O)[O-].O.O [Meldonium L-(+)-aspartate (1:1; ×2H2O)] | – | 12.5% | 18 | –
CN(CC(=O)O)C(=N)N.C[N+](C)(C)NCCC(=O)[O-].O.O.O [Meldonium creatinate (1:1; ×3H2O)] | – | 15.8% | 18 | –
C[N+](C)(C)NCCC(=O)O.O=C([O-])C(Cl)Cl [Meldonium dichloroacetate (1:1)] | – | 1.17% | 12 | –
C[N+](C)(C)NCCC(=O)[O-].O=C(O)C=CC(=O)O [Meldonium fumarate (1:1)] | remains unchanged | 0.18% | – | –
C[N+](C)(C)NCCC(=O)[O-].C[N+](C)(C)NCCC(=O)[O-].O=C(O)C=CC(=O)O [Meldonium fumarate (2:1)] | 13.4707% | 1.5136% | – | –
CC(O)C(=O)O.C[N+](C)(C)NCCC(=O)[O-] [Meldonium lactate (1:1)] | – | – | – | hygroscopicity (in words) [1]: hygroscopic
C[N+](C)(C)NCCC(=O)O.O.O.O=C([O-])CC(O)(CC(=O)[O-])C(=O)[O-].[Mg+2] [Meldonium magnesium citrate (1:1:1; ×2H2O)] | – | 9.45% | – | State of the sample after maintenance at 100% humidity ([1]; 24 hours at 100% humidity): the sample diffused
C[N+](C)(C)NCCC(=O)[O-].O.O.O=C([O-])CCC(=O)[O-].[Mg+2] [Meldonium magnesium succinate (1:1:1; ×2H2O)] | – | 10.1215% | 20 | –
C[N+](C)(C)NCCC(=O)[O-].C[N+](C)(C)NCCC(=O)[O-].O=C(O)C=CC(=O)O [Meldonium maleate (2:1)] | – | 1.3595% | 18 | –
C[N+](C)(C)NCCC(=O)[O-].O=C(O)C(O)C(O)C(O)C(O)C(=O)O (stereo not shown) [Meldonium mucate (galactarate; 1:1)] | 12.8% | 1.98% | – | –
C[N+](C)(C)NCCC(=O)[O-].C[N+](C)(C)NCCC(=O)[O-].O.O=C(O)C(O)C(O)C(O)C(O)C(=O)O (stereo not shown) [Meldonium mucate (galactarate; 2:1; ×H2O)] | 7.6830% | 3.0414% | – | –
C[N+](C)(C)NCCC(=O)[O-] [Meldonium orotate (1:1)] | remains unchanged | 0.3919% | – | –
C[N+](C)(C)NCCC(=O)O.O=C([O-])C(=O)O [Meldonium oxalate (1:1)] | 3.1211% | 0.1661% | – | –
C[N+](C)(C)NCCC(=O)O.O.O=C([O-])c1cc2ccccc2c(Cc2c(O)c(C(=O)O)cc3ccccc23)c1O [Meldonium pamoate (1:1; ×H2O)] | – | 1.71% | 9 | –
C[N+](C)(C)NCCC(=O)O.O=P([O-])(O)O [Meldonium phosphate (1:1)] | remains unchanged | 0.0762% | – | –
C[N+](C)(C)NCCC(=O)O.O=S(=O)([O-])O [Meldonium sulfate (1:1)] | – | 1.4189% | 20 | –
C[N+](C)(C)NCCC(=O)O.C[N+](C)(C)NCCC(=O)O.O=S(=O)([O-])[O-] [Meldonium sulfate (2:1)] | – | 0.313% | 11.8 | –
C[N+](C)(C)NCCC(=O)[O-] [Meldonium, 3-(2,2,2-trimethylhydrazinium) propionate] | – | – | – | stability (in words) [2]: not very stable; half-elimination period [3]: 4 to 10 h; half-elimination period compared with humans [4]: longer
C[N+](C)(C)NCCC(=O)O.O=C([O-])C=CC(=O)O [Meldoniuma maleate (1:1)] | 4.6844% | 0.387% | – | –
C[N+](C)(C)NCCC(=O)[O-] [anhydrous form of Meldonium, reference compound] | – | – | – | hygroscopicity (in words) [1]: extremely hygroscopic; stability (in words) [2]: unstable
Cl [hydrogen chloride, reference compound] | – | – | – | hygroscopicity (in words) [1]: hygroscopic
Meldonium sulfate | – | – | – | hygroscopicity (in words) [1]: hygroscopic
acetate [reference compound] | – | – | – | hygroscopicity (in words) [1]: hygroscopic
citrate | – | – | – | hygroscopicity (in words) [1]: hygroscopic
